# Test results taken from patent US10041922B2, “Biochemistry based ocular toxicity assay” (priority 2015, dated 2018).
# System: eye
# Test: not given
# Conditions: category of irritant from published in vivo irritancy tests (GHS); cited from earlier work
row,SMILES,in vivo
1,NCCO [Ethanolamine],Category 2B
2,CCCCCCO [1-Hexanol],Category 2A
3,CCCCC(CC)COC(=O)c1ccc(N(C)C)cc1 (stereo not shown) [2-Ethylhexyl 4-(dimethylamino)benzoate],Not Classified
4,"BrCCCCCCBr [1,6-Dibromohexane]",Not Classified
5,CCCCCCCCCCCC [Dodecane],Not Classified
6,ClCCCCBr [1-Bromo-4-chlorobutane],Not Classified
7,CC(C)O [2-Propanol],Category 2A

# Same assay, conditions: rabbit, in vivo; cited from earlier work
row,SMILES,in vivo
1,CCOC(=O)C(C)(C)O [Ethyl a-hydroxyisobutyrate],Category 1
2,CCN(CC)CCO [Diethylethanolamine],Category 1
3,c1ccncc1 [Pyridine],Category 1
4,CO[Si](CCCNCCC[Si](OC)(OC)OC)(OC)OC [Organofunctional Silane],Category 1
5,CCOC(=O)C(C)C(C)=O (stereo not shown) [Ethyl 2-methyl],Category 2B

# System: water-soluble protein/glycoprotein test matrix
# Test: Water soluble assay (Alpha): optical response (OD400) of the macromolecule active agent, irritation score
# Conditions: TP/FN/TN based on comparison with the in vivo test results
# Method: The macromolecule based test matrix behaves as an active agent in the assay and is capable of undergoing a measurable change when exposed to an ocular irritant. The measurable change may be a change in appearance, which can be measured by spectrophotometry. One or more standards of known toxicity are added to at least a second aliquot of the water-soluble matrix to form control solutions, to generate a calibration curve. The measurable change induced by the test substance can be compared to the measurable change induced by the standards to make an ocular toxicity prediction. For instance, test substances that induce an equal or greater reaction than a known irritant may be classified as ocular irritants. In some embodiments, the pH of the control solution may be adjusted to match the pH of the test solution, thereby controlling for pH effects and increasing accuracy. In some embodiments, a test substance which is at least partially water insoluble is added to an aliquot of a reagent comprised of one or more hydrophobic organic polymers capable of undergoing a measurable change in response to water insoluble ocular irritants. The measurable change may be a change in appearance, which can be measured by spectrophotometry. One or more standards of known toxicity are added to at least a second aliquot of the reagent to generate a calibration curve. The measurable change induced by the test substance can be compared to the measurable change induced by the standards to make an ocular toxicity prediction in the manner described above. Water-soluble and water-insoluble assays can be performed in parallel, or multiplexed, to rapidly and efficiently predict the ocular toxicity of a wide range of compounds.
# In some embodiments related to the water-soluble sub-assay, the test matrix is a water-soluble active agent comprising one or more macromolecules in aqueous solution. […] In some embodiments, the water-soluble active agent comprises at least one of isoleucine, glutamine, leucine, lysine, tyrosine, valine, proline, methione, fumerase, serine, urocanate, triacyl glycerol, globulin, gammaglobulin, mucopolysaccharide, albumin, carbohydrates, lipids, saponins, conalbumin, ovalbumin, ovomucoid, mucin, egg white fractions, plant extract, cell extract, milk fractions, red blood cell extract, muscle extract, gelatin fractions, heme, aspartate, lignocerate, stearate, linolenate, benzoate, carnitine, palmate, coenzyme A, and urea. The molecules and macromolecules can be derived as crude cell or tissue extracts, or obtained individually or in part and reconstituted.
# A third pretest is performed to measure the buffering power of the unknown test substance. […] Next, 125 μL or mg of test substance is added to the test tube. The pH of the mixture is recorded. The final pH is compared to the starting pH and the absolute value of the change in pH is applied as an exponent to base 10 to generate a buffering score. These pretest results are used to select specific procedures to further analyze the test substance. Compounds with a buffering score between 5 and 2 are within the MA α domain. Compounds outside of the MA α domain with buffering scores less than 100 are within the HMA α domain. Substances with a buffering score of at least 100 are within the H-test domain.
# The MA α procedure is used to test unknowns that have a small buffering capacity. The MA α procedure predicts a substance's capacity for indirect denaturation of molecules across a membrane via osmotic effects, such as osmotic effects across the corneal epithelium and stroma which can damage the cornea. The MA α assay further analyzes Potential to damage tissue via excessive oxidation and reactivity, which can occur at the epithelium, stroma, conjunctiva and iris.
row,SMILES,"Water soluble assay (Alpha), parenthetical call versus in vivo"
1,NCCO [Ethanolamine],(TP)
2,"O=C=Nc1ccc(Cl)c(Cl)c1 [3,4-Dichlorophenyl isocyanate]",(TP)
3,CCCCCCO [1-Hexanol],(TP)
4,OCc1ccccc1 [Benzyl Alcohol],(TP)
5,CCCCC(CC)COC(=O)c1ccc(N(C)C)cc1 (stereo not shown) [2-Ethylhexyl 4-(dimethylamino)benzoate],(TN)
6,"CC(C)(C)CC(C)(C)c1ccc(O)cc1 [4-(1,1,3,3-Tetramethylbutyl)phenol]",(TP)
7,"BrCCCCCCBr [1,6-Dibromohexane]",(TN)
8,CCCCCCCCCCCC [Dodecane],(TN)
9,ClCCCCBr [1-Bromo-4-chlorobutane],(TN)
10,CC(C)O [2-Propanol],(TP)
11,C=CC(=O)OCCO [Hydroxyethyl acrylate],(TP)
12,"CN(C)CCCCCCN(C)C [tetramethyl-1,6 hexanediame]",(TP)
13,CCCCCCCCN [n-Octylamine],(TP)
14,"CCC(C)(C)C(=O)O [2,2-Dimethyl Butanoic Acid]",(TP)
15,O=C(Cl)C(Cl)(Cl)Cl [Trichloroacetyl chloride],(TP)

# System: not listed separately
# Test: Water insoluble assay (Delta): optical response (OD700) of the hydrophobic polymer Δ reagent, irritation score
# Conditions: TP/FN/TN based on comparison with the in vivo test results
# Method: Triplicate Δ Test and Δ Control cells are labeled as follows: Test Cell 40 μL; Control Cell 40 μL; Test Cell Standard A; Test Cell Standard B. The cells are placed in a rack. 40 μL aliquots of test sample are added to the three Δ positive cells. 40 μL of Standard A+ and 40 μL of Standard B+ are added to the respective triplicate cells. 40 μL of test substance is aliquoted to the True Negative cell. All test and standard cells (A+, B+, and control cells) are filled with 2 mL of Δ reagent. […] 2 mL of Δ reagent is added to a naïve Δ test cell to blank a spectrophotometer. The OD700 value is measured for all test and standard cells. Where the substance is colored or opaque, 2 mL of Δ reagent are added to a naïve control Δ cell, and the OD700 value is measured for all control cells.
# Test Cell values are recorded. Control cell values are recorded. Where samples are colored or opaque Net OD700 values are obtained by subtracting the average of the control cell OD700 value from the average of the test cell OD700 value. The average of positive controls A+ and B+ are calculated.
# For each unknown, an irritancy classification is ascertained by using the closest positive cell value. The highest measured value is used. The standard with the closest OD value is identified as the Closest Standard Value. The Measured Value is divided by the mean of the three Closest Standard Values. A multiplier is applied to the quotient corresponding to the designation of the Closest Standard Value. If the Closest Standard Value is A+, the multiplier is 8. […] The resulting value is the irritation score for the sample. The highest score is used to predict the irritancy of the sample.
row,SMILES,"water insoluble assay (Delta), parenthetical call versus in vivo"
1,NCCO [Ethanolamine],(FN)
2,"O=C=Nc1ccc(Cl)c(Cl)c1 [3,4-Dichlorophenyl isocyanate]",(FN)
3,CCCCCCO [1-Hexanol],(FN)
4,OCc1ccccc1 [Benzyl Alcohol],(TP)
5,CCCCC(CC)COC(=O)c1ccc(N(C)C)cc1 (stereo not shown) [2-Ethylhexyl 4-(dimethylamino)benzoate],(TN)
6,"CC(C)(C)CC(C)(C)c1ccc(O)cc1 [4-(1,1,3,3-Tetramethylbutyl)phenol]",(FN)
7,"BrCCCCCCBr [1,6-Dibromohexane]",(TN)
8,CCCCCCCCCCCC [Dodecane],(TN)
9,ClCCCCBr [1-Bromo-4-chlorobutane],TN)
10,CC(C)O [2-Propanol],(FN)
11,"CN(C)CCCCCCN(C)C [tetramethyl-1,6 hexanediame]",(TP)
12,CCCCCCCCN [n-Octylamine],(TP)
13,"CCC(C)(C)C(=O)O [2,2-Dimethyl Butanoic Acid]",(FN)
14,O=C(Cl)C(Cl)(Cl)Cl [Trichloroacetyl chloride],(TP)

# System: water-soluble protein/glycoprotein test matrix
# Test: not given
# Conditions: not given
SMILES,Water soluble assay (Alpha),"Water soluble assay (Alpha), parenthetical call versus in vivo"
CCOC(=O)C(C)(C)O [Ethyl a-hydroxyisobutyrate],>60,(TP)
CCN(CC)CCO [Diethylethanolamine],53.54,(TP)
CO[Si](CCCNCCC[Si](OC)(OC)OC)(OC)OC [Organofunctional Silane],25.53,(TP)
CCOC(=O)C(C)C(C)=O (stereo not shown) [Ethyl 2-methyl],10.9,(FN)
